Experimental data reported in PMC5667507, “A novel ^18F-labelled high affinity agent for PET imaging of the translocator protein” (Chemical Science, 2015).

How the values were obtained:
[1] = target: T1, human serum albumin (HSA) (Homo sapiens, UniProt P02768); test: Human serum albumin (HSA) chromatography for %PPB; type: in vitro ADME; settings: human serum albumin (HSA) coated HPLC column, read-out: %PPB (percentage of plasma protein binding) (converted)
T1 construct: purchased ChromTech HSA 5 µm (3.0 × 50 mm) column
T1 sequence (P02768 25-609): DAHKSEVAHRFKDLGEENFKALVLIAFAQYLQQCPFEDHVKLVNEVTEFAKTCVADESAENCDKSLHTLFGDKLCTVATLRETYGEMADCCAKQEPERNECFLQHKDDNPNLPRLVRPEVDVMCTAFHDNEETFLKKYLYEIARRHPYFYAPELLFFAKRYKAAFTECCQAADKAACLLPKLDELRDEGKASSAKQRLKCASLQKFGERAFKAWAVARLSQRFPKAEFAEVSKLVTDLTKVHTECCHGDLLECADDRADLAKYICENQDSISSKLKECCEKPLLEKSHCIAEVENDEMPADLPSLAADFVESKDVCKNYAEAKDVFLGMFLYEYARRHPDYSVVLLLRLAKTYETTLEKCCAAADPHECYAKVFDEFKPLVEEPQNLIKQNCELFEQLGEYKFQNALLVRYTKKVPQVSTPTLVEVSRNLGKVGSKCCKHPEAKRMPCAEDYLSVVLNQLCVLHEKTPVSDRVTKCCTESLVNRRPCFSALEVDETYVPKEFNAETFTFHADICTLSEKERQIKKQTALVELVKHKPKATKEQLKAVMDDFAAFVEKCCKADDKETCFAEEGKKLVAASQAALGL

[2] = target: T2, TSPO (Rattus norvegicus, UniProt P16257); test: Competition binding assay, displacement of [3H]-PK11195 in rat brain homogenates; settings: displacement of [3H]-PK11195, rat brain homogenates; mean ± SD of three independent experiments
T2 construct: Whole brains from male Sprague-Dawley rats (200–300 g) were obtained; from tissue; host or cells: whole brain of male Sprague-Dawley rats, washed membrane homogenate
Source text: Competition Binding Assays
(6 pictures or pasted objects on this page, not shown here)

[3] = Stability testing in phosphate buffered saline at 37 °C (HPLC); type: physicochemical; settings: for Purity of Compound (stability testing): 1:1 PBS/acetonitrile, 37 °C
Procedure: The key physicochemical parameters of AB5186 6, permeability (P m), membrane partition coefficient (K m) and percentage of plasma protein binding (%PPB) were determined by high-performance liquid chromatography (HPLC) methods (Table 1).[23] […] As AB5186 6 contains a fluoroalkyl group, a potential alkylating agent, the stability of this compound was examined in simulated physiological conditions. […] The combination of a relatively strong C–F bond and the presence of bulky di-ortho-substituents impart a good level of stability.
3-(Fluoromethyl)-4-phenylquinoline-2-N-diethylcarboxamide (6) (2 mg, […]) was dissolved in a 1:1 mixture of […] phosphate buffered saline and acetonitrile (2 mL) and incubated at 37 ° C. 5 µL of the solution was injected onto the HPLC system (conditions described as below in section 7) at various time points (0, 1, 2, 4, 6 and 24 h). The purity of the compound at these time points was detemined by measuring the area under the peaks of the resultant UV

[4] = used for HSA column calibration; ref literature (SI ref 3); cited from earlier work
[5] = target: TSPO; parameters: method as in PMID 20045646; settings: printed in Fig. 2; cited from earlier work

Question: With `CCC(C)N(C)C(=O)c1cc2ccccc2c(-c2ccccc2Cl)n1` (stereo not drawn) [PK11195 1, reference compound] as the molecule, how does the fraction unbound at 0.5 mg/mL [1] read?
Answer: Its fraction unbound at 0.5 mg/mL is 0.085.

Question: Which results are given for `CCN(CC)C(=O)c1nc2ccccc2c(-c2ccccc2)c1CF` [AB5186 6, 3-(Fluoromethyl)-4-phenylquinoline-2-N-diethylcarboxamide]?
Answer: fraction unbound at 0.5 mg/mL [1]: 0.103; Ki [2]: 2.8 ± 0.8 nM; Purity of Compound (stability testing) ([3]; time 0 h): 98.81%; Purity of Compound (stability testing) ([3]; time 1 h): 98.75%; Purity of Compound (stability testing) ([3]; time 2 h): 98.76%; Purity of Compound (stability testing) ([3]; time 4 h): 98.80%; Purity of Compound (stability testing) ([3]; time 6 h): 98.78%; Purity of Compound (stability testing) ([3]; time 24 h): 91.94%; decomposition ([3]; phosphate buffered saline pH 7.4, 37 °C, after 6 hours): 0.03%

Question: For `O=C1CN=C(c2ccccn2)c2cc(Br)ccc2N1` [bromazepam], which “%PPB (literature value of calibration standard)” value (from here on “%PPB”) [4] is on record?
Answer: The value was 60.0%.

Question: For `CCCC1O[C@@H]2C[C@H]3[C@@H]4CCC5=CC(=O)C=C[C@]5(C)[C@H]4[C@@H](O)C[C@]3(C)[C@]2(C(=O)CO)O1` (stereo partly drawn) [budesonide], which “%PPB” value [4] is on record?
Answer: The value was 88.0%.

Question: For “4-(2-iodophenyl)quinoline-2-carboxamide [compound 5]”, which Ki [5] is on record?
Answer: The Ki was 5.01 nM.

Question: For `CNC(=C[N+](=O)[O-])NCCSCc1csc(CN(C)C)n1` [nizatidine], which “%PPB” value [4] is on record?
Answer: Its value is 35.0%.

Question: Which Ki [5] does the source give for “3-iodomethylquinoline-2-carboxamide [compound 4]” here?
Answer: Its Ki is 12 nM.
